In US20250325529A1, “INHIBITORS OF FATTY ACID BINDING PROTEINS (FABPs), METHODS OF USE AND METHODS OF MAKING” (Celloram, inc., priority 2024, published 2025):
Entries after “also recorded” stand apart in the source; their conditions may differ. Where two headings read alike, the source gives them in different places.

What was measured:
[1] = Tissue distribution in C57BL/6 male mice; type: in vivo, C57BL/6 mice; settings: oral 10 mg/kg; for PK parameters / concentration at 0.5 h / concentration at 2 h / concentration at 4 h / concentration at 8 h / Kp: mice; for concentration at 0.5 h / concentration at 2 h / concentration at 4 h / concentration at 8 h / Kp: male, C57BL/6, mouse; for Kp: read-out: Tissue/Plasma ratio (Kp)
[2] = target: PPARδ (Homo sapiens (Human), UniProt Q03181); assay: Transcriptional activation assay in COS7 cells, PPARδ; type: cell-based; settings: PPRE luciferase reporter, PD151 and PD152 at 10 μM
PPARδ, sequence (Q03181 whole entry, species assumed): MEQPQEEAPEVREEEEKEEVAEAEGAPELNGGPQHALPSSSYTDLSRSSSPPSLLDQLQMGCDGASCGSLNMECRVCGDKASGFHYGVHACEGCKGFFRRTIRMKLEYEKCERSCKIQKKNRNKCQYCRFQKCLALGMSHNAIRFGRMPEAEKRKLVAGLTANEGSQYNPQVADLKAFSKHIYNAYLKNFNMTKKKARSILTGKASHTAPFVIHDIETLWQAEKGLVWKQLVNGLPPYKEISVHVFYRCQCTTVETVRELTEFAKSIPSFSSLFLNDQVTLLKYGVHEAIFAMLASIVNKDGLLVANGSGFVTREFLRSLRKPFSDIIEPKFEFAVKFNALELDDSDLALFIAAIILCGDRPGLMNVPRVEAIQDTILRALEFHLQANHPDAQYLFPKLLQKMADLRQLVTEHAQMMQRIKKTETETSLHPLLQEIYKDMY
Protocol: COS-7 were cultured in 6-well plates and co-transfected with either a luciferase reporter driven by 3 copies of a PPRE and expression vector for either PPARδ, PPARα or PPARγ together with a vector harboring cDNA for β-galactosidase, serving as a transfection control. To test whether FABP4 or FABP5 mediate activation of their cognate receptors PPARγ and PPARδ, respectively, cells were also co-transfected with a plasmid harboring sequence of either FABP4 or FABP5. 18 h post-transfection, cells were placed in a serum-free medium and treated with agonist/compound. 18 h. later, cells were lysed, luciferase activity was assayed (Promega, WI, USA) and corrected for transfection efficiency by the activity of β-galactosidase.
Transcriptional activation assays were carried out utilizing COS7 cells as described above.

[3] = target: FABP5 (Homo sapiens (Human), UniProt Q01469); assay: Fluorescence (ANS) competition binding assay, FABP5; settings: ANS displacement
FABP5, sequence (Q01469 whole entry, species assumed): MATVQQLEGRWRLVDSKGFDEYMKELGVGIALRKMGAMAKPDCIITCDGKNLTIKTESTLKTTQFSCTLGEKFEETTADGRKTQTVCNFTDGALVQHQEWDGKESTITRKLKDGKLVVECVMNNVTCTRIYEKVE
Procedure, shortened: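 His-tagged FABPs were expressed in E. coli. Kd for ANS was first determined by titrating 2 μM protein with ANS and following fluorescence increase. Compounds then displaced ANS from 1:1 protein:ANS complexes, and Kd was derived from the competition EC50 and the ANS Kd.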

[4] = Single dose IV and PO PK study in Han Wistar rats; type: in vivo
Protocol: C57BL/6 male mice or Han Wistar rats were used, n=3 for each administration route and compound. Single dose of each compound was administered orally (PO, 10 mg/Kg) or by intravenous administration (IV, 1 mg/Kg). Following intravenous and oral administration, blood samples (ca 0.2 mL) were collected and compound amount was measured by HLPC. For IV group, blood samples were collected at 0.083, 0.25, 0.5, 1, 2, 4, 6, 8, and 24 hours post-dose. For PO group, blood samples were collected at 0.25, 0.5, 1, 2, 4, 6, 8, and 24 hours post-dose.

[5] = tested on: NOD mouse model of autoimmune type 1 diabetes; assay: NOD mouse model of autoimmune type 1 diabetes; type: in vivo, NOD/ShiLtJ mice; settings: female NOD mice
Protocol: Female NOD/ShiLtJ mice were purchased from Jackson's lab at age of 7 weeks. Mice were housed in a temperature-controlled facility (23° C., 12-h light/dark cycle). Weekly non-fasting blood glucose concentrations were measured in the morning by tail vein prick starting at 8 weeks of age by using a blood glucose test meter (OTUltra2 system, Lifescam, USA) and strips according to manufacturer's instruction. Any reading of blood glucose higher than 200 mg/dL was confirmed by another test 24 hours later. Diabetes was diagnosed by 2 consensus positive blood glucose tests higher than 200 mg/dL. At 13 weeks of age, mice were divided into 3 treatments groups (n=15/group) as followed: 1) control group, treated with vehicle (0.5% methyl cellulose, 1% Tween 80); 2) PD152 treated group (40 mg/Kg in vehicle); 3) anti-CD3 treated group (5 μg/mouse, in PBS). Groups 1 and 2 were treated by gavage 5 days a week throughout the duration of the experiment. Group 3 was treated by IV injection for only 5 consecutive days. Mice were sacrificed at the age of 27 weeks.
NOD mouse model of autoimmune type 1 diabetes was used to test the efficacy of FABP4/5 inhibitor PD152 on spontaneous development of the disease. […] Blood glucose levels were measured weekly for monitoring the incidence of diabetes until termination at 27 weeks of age. […]

[6] = brain, read-out: Brain concentration
[7] = liver, read-out: Liver concentration
[8] = pancreas, read-out: Pancreas concentration
[9] = plasma, read-out: Plasma concentration
[10] = skeletal muscle, read-out: Skeletal muscle concentration
[11] = white adipose tissue, read-out: Adipose tissue concentration
[12] = rat, plasma, intravenous 1 mg/kg

In the case of CC(C)Oc1nc(NC(=O)CSCC(=O)O)c(Cl)cc1Cl [PD152, 2-((2-((3,5-dichloro-6-isopropoxypyridin-2-yl)amino)-2-oxoethyl)thio)acetic acid], the PK parameters ([1]; Adipose tissue) is reported as 6655.32 ng·h/g, the “Detection in the brain (blood-brain barrier crossing)” value ([1]; C57BL/6 male mice) is reported as “Only traces” and the “Mean peak adipose tissue concentration” value ([1]; C57BL/6 male mice) is reported as 2109.6 ng/g. For the same compound, the “Mean peak liver concentration” value ([1]; C57BL/6 male mice) was 3893.5 ng/g, the “Mean peak pancreas concentration” value ([1]; C57BL/6 male mice) was 215.09 ng/g and the “Mean peak plasma concentration” value ([1]; C57BL/6 male mice) was 3929.88 ng/mL. For the same compound, the “Mean peak skeletal muscle concentration” value ([1]; C57BL/6 male mice) was 139.45 ng/g, the PK parameters ([1]; Liver) was 6704.59 ng·h/g and the PK parameters ([1]; Pancreas) was 352.54 ng·h/g. The PK parameters ([1]; Skeletal Muscle) was 270.09 ng·h/g, the concentration at 0.5 h [1, 6] was 14.8 ng/g and the concentration at 2 h [1, 6] was 0 ng/g. It also gave a concentration at 4 h [1, 6] of 0 ng/g, a concentration at 8 h [1, 6] of 0 ng/g and a concentration at 0.5 h [1, 7] of 3890 ng/g. The concentration at 2 h [1, 7] was 419 ng/g, the concentration at 4 h [1, 7] was 534 ng/g and the concentration at 8 h [1, 7] was 238 ng/g. The concentration at 0.5 h [1, 8] was 215 ng/g, the concentration at 2 h [1, 8] was 28.2 ng/g and the concentration at 4 h [1, 8] was 20 ng/g. The concentration at 8 h [1, 8] was 14 ng/g, the concentration at 0.5 h [1, 9] was 3930 ng/mL and the concentration at 2 h [1, 9] was 236 ng/mL. The concentration at 4 h [1, 9] was 210 ng/mL, the concentration at 8 h [1, 9] was 149 ng/mL and the concentration at 0.5 h [1, 10] was 139 ng/g. It also gave a concentration at 2 h [1, 10] of 26.5 ng/g, a concentration at 4 h [1, 10] of 14 ng/g and a concentration at 8 h [1, 10] of 21.1 ng/g. The concentration at 0.5 h [1, 11] was 2110 ng/g, the concentration at 2 h [1, 11] was 1020 ng/g and the concentration at 4 h [1, 11] was 520 ng/g. It also gave a concentration at 8 h [1, 11] of 596 ng/g, a Kp ([1]; Adipose tissue) of 1.3 and a Kp ([1]; Liver) of 1.3. For the same compound, the Kp ([1]; Pancreas) was 0.07, the Kp ([1]; Skeletal Muscle) was 0.05 and the “Activation of transcription by PPARδ” value [2] was “None of these tested compounds activated; also recorded: none of the tested compounds PD151 and PD152 activated transcription”. The Kd [3] was 0.028 µM, the Thalf ([4]; oral 10 mg/kg) was 1.13 h and the clearance [4, 12] was 16 mL/min/kg. For the same compound, the half-life [4, 12] was ~43.8 min, the bioavailability ([4]; rat, plasma, oral 10 mg/kg) was 141% and the Diabetes incidence ([5]; 40 mg/Kg by gavage 5 days a week from 13 weeks, by 27 weeks of age) was 46.7%. For the same compound, the “Lower blood glucose levels, difference to control” value ([5]; at 27 weeks of age) was “about 2 fold”.
